Columns and labels:
Cholinesterase [1] = molecular target: T1, Cholinesterase (Equus caballus, UniProt P81908); experiment: Noncompetitive inhibition of equine serum BChE using butyrylthiocholine iodide as substrate assessed as steady state inhibition constant preincubated for 10 mins followed by substrate addition by Lineweaver-Burk double reciprocal plot analysis
Acetylcholinesterase [2] = molecular target: T2, Acetylcholinesterase (Homo sapiens, UniProt P22303)
Description: (§1) Inhibition of human erythrocyte AChE using acetylthiocholine iodide as substrate preincubated for 10 mins followed by substrate addition by Ellman's method

[3] = Cytotoxicity against human fetal MSC assessed as reduction in cell viability at <30 uM after 72 hrs by MTT assay
Cholinesterase [4] = molecular target: T1, Cholinesterase; experiment: Inhibition of equine serum BChE using butyrylthiocholine iodide as substrate preincubated for 10 mins followed by substrate addition by Ellman's method
Cholinesterase [5] = molecular target: T1, Cholinesterase; experiment: Competitive inhibition of equine serum BChE using butyrylthiocholine iodide as substrate assessed as steady state inhibition constant preincubated for 10 mins followed by substrate addition by Lineweaver-Burk double reciprocal plot analysis
Liver carboxylesterase [6] = molecular target: T3, Liver carboxylesterase (Sus scrofa, UniProt Q29550); experiment: Inhibition of porcine liver carboxylesterase using 4-nitrophenol acetate as substrate by spectrophotometric analysis
T3 sequence (Q29550 whole entry): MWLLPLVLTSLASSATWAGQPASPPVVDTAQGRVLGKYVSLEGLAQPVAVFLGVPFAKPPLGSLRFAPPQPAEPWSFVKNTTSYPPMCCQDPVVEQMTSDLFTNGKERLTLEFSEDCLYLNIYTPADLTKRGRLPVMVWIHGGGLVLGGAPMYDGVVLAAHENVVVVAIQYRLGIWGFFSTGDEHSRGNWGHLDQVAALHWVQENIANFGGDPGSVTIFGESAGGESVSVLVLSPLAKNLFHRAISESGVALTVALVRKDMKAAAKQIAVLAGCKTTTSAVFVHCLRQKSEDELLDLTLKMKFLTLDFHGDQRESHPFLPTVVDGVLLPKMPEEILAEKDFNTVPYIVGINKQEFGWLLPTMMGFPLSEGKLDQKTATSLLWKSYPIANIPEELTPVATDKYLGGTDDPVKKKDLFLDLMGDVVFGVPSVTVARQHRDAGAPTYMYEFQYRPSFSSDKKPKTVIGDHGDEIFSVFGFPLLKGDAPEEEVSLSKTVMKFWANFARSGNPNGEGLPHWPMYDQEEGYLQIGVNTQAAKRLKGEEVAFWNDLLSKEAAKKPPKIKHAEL

Acetylcholinesterase [7] = molecular target: T2, Acetylcholinesterase; remark: listed apart in the source
Description: as §1

Liver carboxylesterase [8] = molecular target: T3, Liver carboxylesterase; experiment: Noncompetitive inhibition of porcine liver carboxylesterase using 4-nitrophenol acetate as substrate assessed as steady state inhibition constant preincubated for 10 mins followed by substrate addition by Lineweaver-Burk double reciprocal plot analysis

T1 sequence (P81908 whole entry): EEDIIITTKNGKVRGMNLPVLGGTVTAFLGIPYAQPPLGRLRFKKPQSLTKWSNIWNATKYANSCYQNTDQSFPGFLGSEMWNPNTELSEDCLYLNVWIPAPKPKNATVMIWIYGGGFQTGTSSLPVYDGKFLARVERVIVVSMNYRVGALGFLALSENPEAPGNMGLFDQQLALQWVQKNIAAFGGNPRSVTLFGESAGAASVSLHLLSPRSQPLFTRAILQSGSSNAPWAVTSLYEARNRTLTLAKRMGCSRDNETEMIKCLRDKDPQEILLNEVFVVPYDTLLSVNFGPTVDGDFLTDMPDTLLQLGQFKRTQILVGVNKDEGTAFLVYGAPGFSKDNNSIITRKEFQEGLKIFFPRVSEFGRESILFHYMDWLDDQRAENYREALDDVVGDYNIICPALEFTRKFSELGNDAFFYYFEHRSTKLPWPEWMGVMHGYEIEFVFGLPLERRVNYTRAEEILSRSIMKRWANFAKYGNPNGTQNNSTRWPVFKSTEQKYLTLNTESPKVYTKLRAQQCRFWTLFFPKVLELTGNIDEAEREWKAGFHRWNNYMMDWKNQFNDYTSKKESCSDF
T2 sequence (P22303 whole entry): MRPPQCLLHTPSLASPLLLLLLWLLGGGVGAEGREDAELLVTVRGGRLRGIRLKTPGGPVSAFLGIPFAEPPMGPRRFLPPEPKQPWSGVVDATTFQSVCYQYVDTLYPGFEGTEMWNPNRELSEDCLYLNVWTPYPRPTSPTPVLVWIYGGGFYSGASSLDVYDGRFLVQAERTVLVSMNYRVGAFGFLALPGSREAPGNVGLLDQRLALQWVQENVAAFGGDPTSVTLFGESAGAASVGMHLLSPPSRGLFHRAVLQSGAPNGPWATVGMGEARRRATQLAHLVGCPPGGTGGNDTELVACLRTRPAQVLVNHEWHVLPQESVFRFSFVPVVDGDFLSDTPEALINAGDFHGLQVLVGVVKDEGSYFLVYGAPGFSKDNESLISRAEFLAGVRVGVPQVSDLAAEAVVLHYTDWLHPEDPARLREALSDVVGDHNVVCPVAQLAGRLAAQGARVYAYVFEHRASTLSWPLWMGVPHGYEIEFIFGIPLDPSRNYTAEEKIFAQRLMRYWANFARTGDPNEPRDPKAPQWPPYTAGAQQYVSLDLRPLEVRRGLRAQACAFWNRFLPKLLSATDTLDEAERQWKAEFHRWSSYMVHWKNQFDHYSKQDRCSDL

Row | Compound | Ki (Cholinesterase [1]) [µM] | IC50 (Acetylcholinesterase [2]) [µM] | Activity [3] | IC50 (Cholinesterase [4]) [µM] | Ki (Cholinesterase [5]) [µM] | IC50 (Liver carboxylesterase [6]; read-out: IC50) [µM] | IC50 (Acetylcholinesterase [7]) | Ki (Liver carboxylesterase [8]) [µM] | IC50 (Liver carboxylesterase [6])
1 | Clc1ccc(CN(Cc2cccnc2)C2=NCC(CI)S2)cc1.I (stereo unspecified) | 3.6 | > 100 | Non-toxic | 2.47 | 0.67 | 18 |  |  | 
2 | Br.COc1ccc(CN(Cc2ccccc2)C2=NCC(CBr)S2)cc1 (stereo unspecified) |  |  | Non-toxic | 34 |  | 4.9 | Not Active | 7.37 | 
3 | Br.CC(C)c1ccc(CN(Cc2ccccc2)C2=NCC(CBr)S2)cc1 (stereo unspecified) |  |  | Non-toxic | 11 |  | 2.55 | Not Active | 3.54 | 
4 | Br.Fc1ccc(CN(Cc2ccccc2)C2=NCC(CBr)S2)cc1 (stereo unspecified) |  |  |  | 38 |  | 40 | Not Active |  | 
5 | I.ICC1CN=C(N(Cc2ccccc2)Cc2ccccc2)S1 (stereo unspecified) |  |  |  | 25 |  | 46 | Not Active |  | 
6 | COc1ccc(CN(Cc2ccccc2)C2=NCC(CI)S2)cc1OC (stereo unspecified) |  | > 100 |  | 20 |  | > 100 |  |  | 
7 | Clc1ccccc1CN(Cc1cccnc1)C1=NCC(CI)S1.I (stereo unspecified) |  |  |  | 21 |  | > 100 | Not Active |  | 
8 | CC(C)(C)c1cc(CN(Cc2ccccc2)C2=NCC(CI)S2)cc(C(C)(C)C)c1O.I (stereo unspecified) |  |  |  | > 100 |  |  | Not Active |  | Not Active
9 | Fc1ccc(CN(Cc2ccccc2)C2=NCC(CI)S2)cc1.I (stereo unspecified) |  |  |  | 17 |  | 80 | Not Active |  | 
10 | I.ICC1CN=C(Nc2ccc3c(c2)oc2ccccc23)S1 (stereo unspecified) |  |  |  | > 100 |  | > 100 | Not Active |  | 
11 | CC(C)(C)c1ccc(CN(Cc2ccccc2)C2=NCC(CI)S2)cc1.I (stereo unspecified) | 1.2 |  | Non-toxic | 0.77 | 0.27 | 0.22 | Not Active | 0.4 | 
12 | I.ICC1CN=C(N(Cc2ccccc2)Cc2ccco2)S1 (stereo unspecified) |  |  |  | 42 |  | 131 | Not Active |  | 
13 | Br.Clc1ccccc1CN(Cc1cccnc1)C1=NCC(CBr)S1 (stereo unspecified) |  |  |  | 25 |  | > 100 | Not Active |  | 
14 | Br.CC(C)(C)c1ccc(CN(Cc2ccccc2)C2=NCC(CBr)S2)cc1 (stereo unspecified) |  |  | Non-toxic | 2.34 | 0.62 | 0.32 | Not Active | 0.44 | 
15 | Br.Clc1ccc(CN(Cc2cccnc2)C2=NCC(CBr)S2)cc1 (stereo unspecified) | 19.9 |  | Non-toxic | 30 | 9.51 | > 100 | Not Active |  | 
16 | COc1ccc(CN(Cc2ccccc2)C2=NCC(CI)S2)cc1.I (stereo unspecified) |  |  | Non-toxic | 25 |  | 4.66 | Not Active | 7.81 | 
17 | Br.CC(c1ccccc1)N(Cc1ccccc1)C1=NCC(CBr)S1 (stereo unspecified) |  |  |  | 14 |  | > 100 | Not Active |  | 
18 | Br.BrCC1CN=C(N(Cc2ccccc2)Cc2ccccc2)S1 (stereo unspecified) |  |  |  | 26 |  | 32 | Not Active |  | 
19 | CC(c1ccccc1)N(Cc1ccccc1)C1=NCC(CI)S1.I (stereo unspecified) |  |  |  | > 100 |  | 19 | Not Active |  | 
20 | Clc1ccccc1CN(Cc1ccccc1)C1=NCC(CI)S1.I (stereo unspecified) |  |  |  | 44 |  | 117 | Not Active |  | 
21 | CC(C)c1ccc(CN(Cc2ccccc2)C2=NCC(CI)S2)cc1.I (stereo unspecified) | 7.56 |  | Non-toxic | 4.14 | 1.34 | 2.13 | Not Active | 2.09 | 
